Earlier results on five compounds are cited in patent US20250345315A1, “Dispenseable formulation for active pharmaceutical ingredients” (CurifyLabs Oy, priority 2024, published 2025).

For the data set the following is noted: permeability/solubility class per ICH M9 guideline.

Counter-ions that a name gives are not always drawn.

For the compound `CC(=O)Oc1ccccc1C(=O)O` [Acetylsalicylic acid], the Class result is reported as “I”. As for `CC(C)NCC(O)COc1ccc(COCCOC(C)C)cc1` (centres unmarked) [Bisoprolol fumarate], the Class result is “I”. As to `CC(=O)Nc1ccc(O)cc1` [Paracetamol], the Class entry is “I”. Take `C[C@]12C=CC(=O)C=C1CC[C@@H]1[C@@H]2[C@@H](O)C[C@@]2(C)[C@H]1CC[C@]2(O)C(=O)CO` [Prednisolone]: the Class result was “I”.

Turning to `CC(C)NCC(O)COc1cccc2ccccc12` (centres unmarked) [Propranolol HCl], the Class entry is recorded as “I”.
